In a compilation of properties of binary mixtures (doi:10.1021/acs.jpcb.0c03296):

Test: xn = mol fraction of the nth substance listed
Settings: 100 kPa

C[N+](C)(C)CCO.O=S(=O)([N-]S(=O)(=O)C(F)(F)F)C(F)(F)F + OCCO
Settings | electrical conductivity, x1 = 0.14 [S/m] | electrical conductivity, x1 = 0.2 [S/m] | electrical conductivity, x1 = 0.333 [S/m] | viscosity, x1 = 0.14 [mPa·s] | viscosity, x1 = 0.2 [mPa·s] | viscosity, x1 = 0.333 [mPa·s]
298.1 K | 0.313 | 0.402 | 0.36 | 22.27 | 28.99 | 30.56
303 K | – | 0.494 | 0.442 | – | 23.44 | 24.82
308.1 K | 0.456 | 0.6 | 0.532 | 14.46 | 18.97 | 20.46
313 K | 0.54 | 0.715 | 0.635 | 12.12 | 15.74 | 17.15
318.1 K | 0.631 | 0.839 | 0.745 | 10.36 | 13.28 | 14.48
323 K | – | 0.975 | 0.866 | – | 11.32 | 12.28
328.1 K | 0.838 | 1.12 | 1 | 7.73 | 9.77 | 10.7
